From the supplement of paper PMC11451515

Columns and labels:
Settings in all cases: 48 h
SEM cells [1] = test: cell viability relative to DMSO control; higher = less cytotoxic
Outline: (§1)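 In 1536-well plates, 5 μl of leukemia cells were seeded per well: 500 cells/well for NOMO1 or SEM and 1000 cells/well for P12-Ichikawa. Each line had first been adapted for at least four passages in each medium. Library compounds in DMSO were pin-dosed at 11 threefold concentrations between 47 μM and 0.79 nM, and CellTiter-Glo One luminescence was read after 48 h at 37°C. Viability is a per-plate percentage relative to DMSO wells, with cell-free wells as background.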

NOMO1 [2] = test: as above
Outline: as §1

P12-Ichikawa [3] = test: as above
Outline: as §1

SEM cells [4] = test: AUC of viability dose-response curve (% viability x log10 dose units); higher = less sensitive
Outline: (§2)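 Area under the curve was integrated by trapezoidal rule from a log-logistic fit of normalised viability, with curves exceeding full viability scaled and quality-control failures removed. The fit had four parameters over log10 doses. Viability came from CellTiter-Glo One luminescence, normalised per plate to DMSO and cell-free wells, after leukemia cells adapted to each medium (500 or 1000 cells/well, 1536-well plates) were exposed to library compounds in DMSO for 48 h at 37°C. The 11 threefold doses ran from 47 μM to 0.79 nM.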

NOMO1 [5] = test: as above
Outline: as §2

P12-Ichikawa [6] = test: as above
Outline: as §2

C#CCN[C@@H]1CCc2ccccc21.CS(=O)(=O)O
cell viability [%]
Settings | NOMO1 [2] | P12-Ichikawa [3] | SEM cells [1]
HPLM + 10% dialyzed FBS, 0.000781 µM | 107 | 105 | 105
HPLM + 10% dialyzed FBS, 0.00234 µM | 93.4 | 100 | 101
HPLM + 10% dialyzed FBS, 0.00702 µM | 108 | 91 | 83.6
HPLM + 10% dialyzed FBS, 0.0211 µM | 109 | 105 | 86.2
HPLM + 10% dialyzed FBS, 0.0632 µM | 91.7 | 103 | 110
HPLM + 10% dialyzed FBS, 0.19 µM | 90.3 | 95 | 108
HPLM + 10% dialyzed FBS, 0.569 µM | 96 | 98.2 | 107
HPLM + 10% dialyzed FBS, 1.71 µM | 82.6 | 100 | 106
HPLM + 10% dialyzed FBS, 5.12 µM | 93.9 | 91.2 | 41.2
HPLM + 10% dialyzed FBS, 15.4 µM | 71.3 | 93.5 | 91.7
HPLM + 10% dialyzed FBS, 46.1 µM | 43.2 | 86.4 | 89.2
RPMI 5 mM glucose + 10% FBS, 0.000781 µM | 89.6 | 97.6 | 103
RPMI 5 mM glucose + 10% FBS, 0.00234 µM | 97 | 93.6 | 112
RPMI 5 mM glucose + 10% FBS, 0.00702 µM | 92.7 | 90.5 | 56.8
RPMI 5 mM glucose + 10% FBS, 0.0211 µM | 87.9 | 95.2 | 97.3
RPMI 5 mM glucose + 10% FBS, 0.0632 µM | 94 | 101 | 112
RPMI 5 mM glucose + 10% FBS, 0.19 µM | 88.1 | 103 | 105
RPMI 5 mM glucose + 10% FBS, 0.569 µM | 91.1 | 93.7 | 106
RPMI 5 mM glucose + 10% FBS, 1.71 µM | 84.2 | 85.6 | 100
RPMI 5 mM glucose + 10% FBS, 5.12 µM | 84.2 | 95.9 | 24.4
RPMI 5 mM glucose + 10% FBS, 15.4 µM | 96.5 | 92.9 | 96
RPMI 5 mM glucose + 10% FBS, 46.1 µM | 67.2 | 84.2 | 95.2
RPMI 5 mM glucose + 10% dialyzed FBS, 0.000781 µM | 86.1 | 89.5 | 107
RPMI 5 mM glucose + 10% dialyzed FBS, 0.00234 µM | 99.9 | 91.9 | 116
RPMI 5 mM glucose + 10% dialyzed FBS, 0.00702 µM | 105 | 94.9 | 74.2
RPMI 5 mM glucose + 10% dialyzed FBS, 0.0211 µM | 99.8 | 88.8 | 82.9
RPMI 5 mM glucose + 10% dialyzed FBS, 0.0632 µM | 106 | 101 | 99.7
RPMI 5 mM glucose + 10% dialyzed FBS, 0.19 µM | 101 | 99.1 | 105
RPMI 5 mM glucose + 10% dialyzed FBS, 0.569 µM | 93.7 | 97 | 99.8
RPMI 5 mM glucose + 10% dialyzed FBS, 1.71 µM | 107 | 85.5 | 106
RPMI 5 mM glucose + 10% dialyzed FBS, 5.12 µM | 85.1 | 83.6 | 42.8
RPMI 5 mM glucose + 10% dialyzed FBS, 15.4 µM | 90.6 | 83.7 | 110
RPMI 5 mM glucose + 10% dialyzed FBS, 46.1 µM | 81.8 | 83.5 | 86.3

AUC of viability dose-response curve
Settings | NOMO1 [5] | P12-Ichikawa [6] | SEM cells [4]
HPLM + 10% dialyzed FBS | 436 | 463 | 445
RPMI 5 mM glucose + 10% FBS | 426 | 448 | 441
RPMI 5 mM glucose + 10% dialyzed FBS | 459 | 434 | 438
